Assay results from patent publication US5981555A, “Compositions, kits and methods for administration of antilipemic drugs” (Lipoprotein Technologies, Inc., priority 1997, dated 1999).
Where “and” joins values, the source holds several entries; their conditions need not be identical. Identical values can stand only once. Like-named read-outs stand apart in the source and are kept apart here.

Experiments:
inflammation = conditions: cited from earlier work
[1] = test system: prostaglandin synthetase (cyclooxygenase); conditions: Flower, Pharmacol. Rev. 26:33 (1974); cited from earlier work
[2] = test system: PG production in other cell types; conditions: cited from earlier work
[3] = test system: human macrophage cell line THP-1; experiment: PG release from THP-1 cells in vitro (Examples 3 and 6); format: cell-based; conditions: for IC50: Homo sapiens
Excerpt: Indomethacin was used in place of aspirin to inhibit PG production in THP-1 cells in vitro as in Example 3.

[4] = test system: nicotinic acid-induced flush; conditions: pretreatment at 4.5 and 0.5 hr; indomethacin 25 or 50 mg/kg; aspirin 50, 100, or 200 mg/kg; cited from earlier work
[5] = test system: flushing induced by niacin; experiment: Niacin flushing after sustained release aspirin pretreatment (Example 7); format: in vivo, human
[6] = test system: flushing induced by nicotinic acid; format: in vivo, human
Method: Two weeks later, the same subjects were administered 40 of mg aspirin for each of four days.

[7] = test system: cutaneous flush induced by nicotinic acid; conditions: 975 mg total: 650 mg at 1 hr and 325 mg at 0.5 hr prior to nicotinic acid; cited from earlier work
platelet aggregation = conditions: cited from earlier work
[8] = test system: flushing induced by nicotinic acid; experiment: Niacin flushing after bid aspirin pretreatment (Example 2); format: in vivo, human
Method: Three subjects were administered 40 mg of aspirin twice daily (i.e., bid) in the morning and evening for three days.

[9] = test system: PGD-M, the major urinary metabolite of PGD2; experiment: Urinary excretion of PGD-M after nicotinic acid (Example 1, FIGS. 1, 2); format: in vivo, human
Method: (§1) Two weeks later, the same subjects were administered 40 of mg aspirin for each of four days. […] Urinary excretion of PGD-M was much lower (FIG. 2), confirming the suppressive activity of aspirin on PGD2 release. Release of PGF2 after aspirin pretreatment (40 mg) was approximately 10% of baseline (FIG. 3).

[10] = test system: flushing induced by nicotinic acid; experiment: Rating of flushing by investigator (Example 8); format: in vivo, human; conditions: number of subjects; n = 14; p < 0.05 (Wilcoxon)
Method: (§2) Fourteen healthy male subjects completed the study. After randomization, subjects were given a placebo or 81 mg of aspirin bid for three days. The study was double-blind.
(§3) Room temperature and humidity were constant during the trial.
(§4) Flushing was measured in three ways: (1) quantitatively using laser Doppler, (2) subjectively via questionnaire, and (3) by measuring a biochemical marker of flushing, a stable metabolite of prostaglandin D2. Complete pharmacokinetic parameters in timed blood samples after oral administration were also measured in plasma and urine. Flushing, as measured by continuous and simultaneous recording of cutaneous blood flow on each side of the neck using laser Doppler techniques (Moor Instruments), provides an arbitrary representation of cutaneous blood flow defined as FLUX. Flux is expressed in arbitrary units (AU) from baseline (FLUXpeak-FLUXbaseline; see FIG. 11B). Duration of flush is the time in minutes from the beginning to the end of Flux shift in the DRTSOFT plot.

[11] = test system: flushing induced by nicotinic acid; experiment: Rating of flushing by subject (Example 8); format: in vivo, human; conditions: number of subjects; n = 14; p < 0.05 (Wilcoxon)
Method: as §2, §3, §4

[12] = test system: niacin-induced cutaneous reactions; conditions: cited from earlier work
[13] = test system: flushing induced by nicotinic acid; experiment: Cutaneous blood flow (FLUX) by laser Doppler, flushing severity and duration (Example 8); format: in vivo, human; conditions: mean ± S.D., n = 14
Method: as §2, §3, §4

PGF2 release = experiment: PG release following topical nicotinic acid with or without aspirin pretreatment (FIG. 3); format: in vivo, human; conditions: aspirin pretreatment (40 mg) (FIG. 3)
Method: as §1

[14] = test system: flushing induced by nicotinic acid; experiment: Local skin temperature change (Example 8); format: in vivo, human; conditions: mean ± S.D.; n = 14; p = 0.016 (paired t test)
Method: as §2, §3

[15] = test system: human circulating monocytes; conditions: FIG. 4
[16] = within days after initiating therapy; cited from earlier work
[17] = test system: eicosanoid metabolites in urine; conditions: oral administration (FIG. 8)
Excerpt: (§5) Langerhans cells, the macrophages of skin, may differ from other macrophages in releasing lesser amounts of eicosanoids other than PGD2.

[18] = test system: release of eicosanoids from skin; conditions: topical niacin (FIG. 7)
Excerpt: as §5

[19] = test system: prostaglandin F2, a metabolite of D; conditions: cited from earlier work
[20] = Physician's Desk Reference, 51st ed.
[21] = initial testing, out of 306 patients, over 33 months
[22] = 325 mg aspirin 30 minutes prior to niacin

## Cc1ccc(C(=O)c2ccc(CC(=O)O)n2C)cc1 [Tolmetin]
inflammation; [20]
  Minimum Anti-inflammatory Dosage: 400 mg

## CC(C(=O)O)c1ccc(-c2ccccc2)c(F)c1 (stereo not shown) [Flurbiprofen]
inflammation; Goodman and Gilman, 9th ed.
  Minimum Anti-inflammatory Dosage: 50 mg

## CC(C)Cc1ccc(C(C)C(=O)O)cc1 (stereo not shown) [ibuprofen]
[1]
  inhibition of synthesis of PGs such as E2 and F2, concentrations: high micromolar

## COc1ccc2c(c1)c(CC(=O)O)c(C)n2C(=O)c1ccc(Cl)cc1 [indomethacin]
[2]
  inhibitory concentrations on PG production in other cell types: micromolar range
[3]; THP-1, read-out: IC50, PG production in THP-1 cells
  IC50: ~1 nM
[3]; THP-1 versus other cells
  sensitivity of THP-1 cells relative to other cells: approximately 1000 times
[1]
  inhibition of synthesis of PGs such as E2 and F2, concentrations: high micromolar
inflammation; [20]
  Minimum Anti-inflammatory Dosage: 25 mg
[4]
  inhibition of nicotinic acid-induced flush (increase in ear temperature): inhibited

## CN1C(C(=O)Nc2ccccn2)=C(O)c2ccccc2S1(=O)=O [Piroxicam]
inflammation; [20]
  Minimum Anti-inflammatory Dosage: 10 mg

## CCc1cccc2c3c([nH]c12)C(CC)(CC(=O)O)OCC3 (stereo not shown) [Etodolac]
inflammation; Goodman and Gilman, 9th ed.
  Minimum Anti-inflammatory Dosage: 200 mg

## O=C(O)c1ccccc1Nc1cccc(C(F)(F)F)c1 [flufenamic acid]
[1]
  inhibition of synthesis of PGs such as E2 and F2, concentrations: high micromolar

## CC(C(=O)O)c1cccc(C(=O)c2ccccc2)c1 (stereo not shown) [Ketoprofen]
inflammation; Goodman and Gilman, 9th ed.
  Minimum Anti-inflammatory Dosage: 150 mg

## CC(=O)Oc1ccccc1C(=O)O [aspirin]
[5]; 325 mg aspirin 1/2 hour before 500 mg immediate release niacin, third subject
  flushing, aspirin 1/2 hour before niacin, third subject: severe flushing
[5]; 325 mg aspirin 1/2 hour before 500 mg immediate release niacin, two subjects
  flushing, aspirin 1/2 hour before niacin: flushing, though slightly diminished
[5]; 325 mg aspirin 1/2 hour before niacin, compared with SR aspirin for 6 hours, three subjects
  side effects from niacin versus sustained release aspirin predosing: significantly greater side effects
[6]; 40 mg aspirin 1 hour prior to 500 mg immediate release nicotinic acid, all three subjects
  subjective sensation: subjective sensation of cutaneous warmth
[6]; 40 mg aspirin 1 hour prior to single 500 mg immediate release nicotinic acid, all three subjects
  flushing: severe flushing
[6]; 40 mg aspirin each of four days, 500 mg nicotinic acid on fourth day 1 hour after aspirin, two of three subjects
  flushing after multi-day aspirin pretreatment: virtually no flushing
[6]; 40 mg aspirin each of four days, 500 mg nicotinic acid on fourth day, third subject
  flushing after multi-day aspirin pretreatment, third subject: some flushing, but less than that encountered previously
[7]
  reduction of cutaneous flush: significantly reduce cutaneous flush
Platelet aggregation; [21]
  patients with complete inhibition of platelet aggregation: 288 patients
  patients with partial inhibition of platelet aggregation: 78 patients
Platelet aggregation; of 52 patients, dosage escalation or fluctuation of response
  patients with initial partial inhibition achieving complete inhibition: 35
Platelet aggregation; of the 35
  patients reverted to partial inhibition on further testing: 8
Platelet aggregation; repeat testing, without change in aspirin dosage
  patients converted from complete to partial inhibition: about 33%
[8]; 40 mg aspirin bid three days, fourth day 500 mg immediate release nicotinic acid with 40 mg aspirin, three subjects
  flushing, bid aspirin pretreatment: None of the subjects experienced any appreciable flushing
[3]; THP-1, read-out: IC50, inhibition of niacin-stimulated release of PG from THP-1 cells
  IC50: ~380 nM and ~0.07 µg/mL
[1]
  inhibition of synthesis of PGs such as E2 and F2, concentrations: high micromolar
[9]; 40 mg aspirin each of four days, 500 mg nicotinic acid on fourth day (FIG. 2)
  urinary excretion of PGD-M after multi-day aspirin: much lower
[10]
  Rating of Flushing by Investigator: Mild: 2
  Rating of Flushing by Investigator: Moderate: 3
  Rating of Flushing by Investigator: None: 8
  Rating of Flushing by Investigator: Severe: 1
  Rating of Flushing by Investigator: Very severe: 0
[11]
  Rating of Flushing by Subject: Mild: 4
  Rating of Flushing by Subject: Moderate: 1
  Rating of Flushing by Subject: None: 6
  Rating of Flushing by Subject: Severe: 3
  Rating of Flushing by Subject: Very severe: 0
[12]; 80 mg aspirin 30 minutes prior to niacin, compared to placebo
  niacin-associated flushing, warmth, itching and tingling, 80 mg aspirin: even more aggravated flushing, warmth, itching and tingling
[12]; [22]
  niacin-associated warmth, flushing, itching and tingling, 325 mg aspirin: decrease the warmth and flushing associated with niacin, but not the itching and tingling
  patients with flushing and warmth: at least 72 % of the patients
inflammation; [20]
  Minimum Anti-inflammatory Dosage: 325 mg
[4]
  inhibition of nicotinic acid-induced flush (increase in ear temperature): inhibited
[13]; aspirin 81 mg bid three days then 500 mg nicotinic acid + 81 mg aspirin vs placebo then niacin, p = 0.0001 (paired t test)
  AUCflux: 3022.5 + 2772
[13]; p = 0.002 (paired t test)
  Flushing duration: 15.8 ± 16 min
PGF2 release
  release of PGF2 after aspirin pretreatment: approximately 10 % of baseline
[14]
  Local T° change: 0.61 ± 0.56 °C

## O=C(O)Cc1ccccc1Nc1c(Cl)cccc1Cl [Diclofenac]
inflammation; Goodman and Gilman, 9th ed.
  Minimum Anti-inflammatory Dosage: 100 mg

## CC1=C(CC(=O)O)c2cc(F)ccc2/C1=C\c1ccc([S+](C)[O-])cc1 (stereo not shown) [Sulindac]
inflammation; Goodman and Gilman, 9th ed.
  Minimum Anti-inflammatory Dosage: 150 mg

## CC(C(=O)O)c1cccc(Oc2ccccc2)c1 (stereo not shown) [Fenoprofen]
inflammation; Goodman and Gilman, 9th ed.
  Minimum Anti-inflammatory Dosage: 300 mg

## O=C(O)c1cccnc1 [niacin, nicotinic acid]
[15]
  in vitro release of PGs from human circulating monocytes: stimulate in vitro release of PGs
[16]
  patients who cease taking nicotinic acid: 30-40 % of patients
[8]; single 500 mg dose without aspirin, all three subjects
  flushing, nicotinic acid without aspirin: severe flushing
[3]; FIG. 4
  in vitro release of PGs from THP-1: stimulate in vitro release of PGs
[17]
  metabolites of PGD2 in urine: increased amounts
  metabolites of leukotriene in urine: increased amounts
  metabolites of thromboxane in urine: increased amounts
[18]
  release of 9a, 11b-PGF2: increased the release
  release of thromboxane (TxB2): did not release
[9]; 500 mg nicotinic acid 1 hour after single 40 mg aspirin, over 7 hours (FIG. 1)
  excretion of PGD-M in urine: significant amounts
[19]; after 6 days of continuous, twice daily administration
  level of prostaglandin F2 on repeated administration: decreases markedly
[19]; following administration of niacin
  concentration of prostaglandin F2 in blood coming from the skin: dramatic rise

## O=C(O)CCc1nc(-c2ccccc2)c(-c2ccccc2)o1 [Oxaprozin]
inflammation; Goodman and Gilman, 9th ed.
  Minimum Anti-inflammatory Dosage: 600 mg

## COc1ccc2cc([C@H](C)C(=O)O)ccc2c1 [naproxen]
[1]
  inhibition of synthesis of PGs such as E2 and F2, concentrations: high micromolar
inflammation; [20]
  Minimum Anti-inflammatory Dosage: 250 mg

## COc1ccc2cc(CCC(C)=O)ccc2c1 [Nabumetone]
inflammation; [20]
  Minimum Anti-inflammatory Dosage: 500 mg

## CCCCC1C(=O)N(c2ccccc2)N(c2ccccc2)C1=O [phenylbutazone]
[1]
  inhibition of synthesis of PGs such as E2 and F2, concentrations: high micromolar

## O=C(c1ccccc1)c1ccc2n1CCC2C(=O)O (stereo not shown) [Ketorolac]
inflammation; Goodman and Gilman, 9th ed.
  Minimum Anti-inflammatory Dosage: 5 mg
